Measurements: article PMC9007951, “Systematically evaluating DOTATATE and FDG as PET immuno-imaging tracers of cardiovascular inflammation” (Scientific Reports, 2022)
Values belong to the compound of their own block, whether it stands above or below them.

Experiments:
[1] = test system: C57Bl/6 mice subjected to myocardial infarction; assay: In vivo PET/CT of cardiac inflammation in infarcted mice; details: tracer circulated 60 min, median
Protocol: (§1) Myocardial infarction in mice was induced by permanent ligation of the left anterior descending (LAD) coronary artery of female C57Bl/6 mice (N = 18). Briefly, animals were anesthetized with xylazine (10 mg/kg) and ketamine (100 mg/kg) and intubated using an endotracheal intubation kit from Braintree Scientific (Braintree, MA). Left-sided thoracotomy and pericardial incision were performed. A 7-0 Silk suture was used to occlude the LAD. Incisions were closed with a 5-0 Silk suture. Infarcted animals were treated with 0.1 mg/kg of buprenorphine every 12 h and used 3 days after the surgery.
(§2) For the PET/CT experiments, mice were fasted for 12 h before radiotracer injection and anesthetized with xylazine (10 mg/kg) and ketamine (100 mg/kg) through intraperitoneal injection prior to radiotracer administration. Subsequently they were injected via the lateral tail vein with approximately 22.2 MBq of [^18F]F-FDG or 5.55 MBq of [^64Cu]Cu-DOTATATE. Tracers were allowed to circulate for 60 min. Immediately before imaging, mice were placed under 1% isoflurane (BaxterHealthcare, Deerfield, IL), and subsequently imaged on a high resolution (700 µm) Mediso nanoScan PET/CT scanner (Mediso, Budapest, Hungary). CT scan was acquired at 50 kVp and 300 ms exposure per projection. eXIA160 (Binitio, Ontario, Canada) was used as a contrast agent to improve imaging of the vasculature by intravenous administration of 100 μl per mouse 5 min prior to CT acquisition. PET acquisition time was 40 min. Reconstruction was performed using TeraTomo 3D reconstruction engine, for 8 iterations and 6 subsets per iteration for both tracers. The voxel size was isotropic at 0.3 mm. Immediately after the PET/CT scan, animals were euthanized for ex vivo assays.
(§3) Using OsiriX v5.6 software (OsiriX Foundation, Geneva, Switzerland), regions of interest (ROIs) were drawn to determine organ radioactivity concentration. In mice, for healthy and infarcted myocardium, ROIs were traced manually in the apex of the heart in the axial view. For remote myocardium, analysis was performed in myocardium 180° from the infarcted zone. In the mice aorta, sequential ROIs were drawn in the ascending aorta based on consecutive tomographic (CT) slices beginning from the root up to the brachiocephalic branch, merging point with the aortic arch. Voxel counts were converted to maximum standardized uptake values (SUVmax). In rabbits, PET images were fused with time-of-flight bright blood MRI angiography and ROIs were manually drawn on the infrarenal abdominal aorta in TOF images. The slice-by-slice maximum standard uptake values (SUVmax) were averaged across the whole aorta. […]

[2] = as above; details: female, mouse, heart, iv, 5.55 MBq, total radioactivity, healthy C57Bl/6 mice, tracer circulated 60 min, median, N = 4, read-out: SUVmax heart of control animals
Protocol: as §1, §2, §3

[3] = [^64Cu]Cu-DOTATATE distribution in blood fractions (plasma vs cells); assay type: in vivo, mice; details: 120 min after radiotracer injection, mean ± SEM, N = 5
Protocol: Wild-type and atherosclerotic animals were injected with approximately 1.85 MBq of [^64Cu]Cu-DOTATATE and euthanized at either 1, 5, 15, 30, 60 or 120 min after injection (Supplementary Fig. S1A) to evaluate the tracer’s biodistribution. After euthanasia, an insulin syringe was used to collect blood samples from the right ventricle. Blood samples were used for the establishment of pharmacokinetics profile. Mice were then perfused with 20 mL of phosphate-buffered saline (PBS) and tissues of interest (heart, aorta, bone marrow, spleen, liver, stomach, bladder, kidneys, intestines, lungs, adrenal gland, muscles and pancreas) were harvested. Tissues were blotted for gamma counting on a Wizard2 2480 automatic gamma counter (Perkin Elmer, Waltham, MA). Values were corrected for decay and normalized to tissue weight to express radioactivity concentration as percentage injected dose per gram (%ID/g). […] To investigate the tracer’s distribution within different blood compartments, after gamma counting, 100 μL of blood were spun down at 2000 g for 15 min at 4 °C. Plasma (supernatant) and cells (pellet) were gamma counted and expressed as percentage of total activity. […] Percentage of activity in mononuclear and polynuclear cells was calculated.

[4] = [^68Ga]Ga-DOTATATE distribution in blood fractions (plasma vs cells); assay type: in vivo, New Zealand White rabbits; details: control (N = 2) and athero4mo (N = 3) rabbits
Protocol: Adopting a translational approach, the rabbit studies were performed with the [^68Ga]Ga-labeled tracer, which is already being used in the clinic. [^68Ga]Ga-DOTATATE was purchased from Advanced Accelerator Applications (AAA, Millburn, NJ, USA). To determine its pharmacokinetics, three atherosclerotic rabbits and two healthy controls were injected with approximately 190 MBq of [^68Ga]Ga-DOTATATE. Venous blood was sampled at 1, 5, 10, 15, 20, 30, 60, 120, 180, 240 and 300 min after injection through the ear vein. Samples were weighed and gamma counted. Blood half-life data were fitted using a two-phase decay non-linear regression using GraphPad Prism v8.4.3 (Supplementary Table S1). To investigate the tracer blood distribution, blood samples were centrifuged at 2000 g for 15 min at 4 °C to determine the radioactivity concentration in the plasma and cellular fractions. To analyze [^68Ga]Ga-DOTATATE biodistribution, all rabbits were euthanized after the last imaging time-point using an injection of pentobarbital 100 mg/kg and exsanguination of the portal vein. Rabbits were extensively perfused with 1000 mL of saline. Following, tissues (blood, heart, aorta, liver, kidney, skeletal muscle, small and large intestine, fat, stomach, pancreas and bladder) were harvested, weighed and gamma counted.

[5] = C57Bl/6 mice 3 days after LAD ligation, N = 4 ([^64Cu]Cu-DOTATATE), N = 6 ([^18F]F-FDG)

SUVmax infarcted myocardium [1, 5]: 4.2
SUVmax remote (non-infarcted) myocardium [1, 5]: 2.1
SUVmax heart of control animals ([1]; healthy C57Bl/6 mice, N = 4): 3.4
Compound: OC[C@H]1OC(O)[C@H]([18F])[C@@H](O)[C@@H]1O (stereo partly shown) [[^18F]F-FDG, [^18F]F-fluorodeoxyglucose]

SUV at 1 h [2]: 0.6 SUV
blood radioactivity contained in plasma ([3]; atherosclerotic Apoe^−/− mice): 88.7 ± 0.9%
blood radioactivity contained in plasma ([3]; control C57Bl/6 mice): 83.4 ± 0.6%
Compound: C[C@@H](O)[C@H](NC(=O)[C@@H]1CSSC[C@H](NC(=O)[C@@H](Cc2ccccc2)NC(=O)CN2CCN(CC(=O)O)CCN(CC(=O)O)CCN(CC(=O)O)CC2)C(=O)N[C@@H](Cc2ccc(O)cc2)C(=O)N[C@H](Cc2c[nH]c3ccccc23)C(=O)N[C@@H](CCCCN)C(=O)N[C@@H]([C@@H](C)O)C(=O)N1)C(=O)O [[^64Cu]Cu-DOTATATE, metal not drawn]

distribution between plasma and cells [4]: detected in plasma, rather than cells
Compound: C[C@@H](O)[C@H](NC(=O)[C@@H]1CSSC[C@H](NC(=O)[C@@H](Cc2ccccc2)NC(=O)CN2CCN(CC(=O)O)CCN(CC(=O)O)CCN(CC(=O)O)CC2)C(=O)N[C@@H](Cc2ccc(O)cc2)C(=O)N[C@H](Cc2c[nH]c3ccccc23)C(=O)N[C@@H](CCCCN)C(=O)N[C@@H]([C@@H](C)O)C(=O)N1)C(=O)O [[^68Ga]Ga-DOTATATE, metal not drawn]
